In patent US8846393B2, “Methods of improving stem cell homing and engraftment” (Gamida-Cell Ltd., priority 2005, dated 2014):

Key:
VLA-4 = test: Shear flow experiments, VLA4-mediated binding to immobilized VCAM-1; format: cell-based, human; details: CD34+ cells cultured with cytokines and nicotinamide
Method: FIG. 3 is a graph showing the effect of nicotinamide on VLA4-mediated binding of cells to immobilized adhesion molecules under shear flow. CD34+ cells cultured as described in FIGS. 1 and 2 hereinabove were assayed for capture and arrest under shear stress, on immobilized VCAM-1 adsorbed as 10 μl dots on polystyrene. Cell settling events, and arrest were analyzed under perfusion (shear stress) by video photography. Assayed cell populations were cells before culture (non-cultured, open circles), cells cultured with cytokines, as described in FIG. 2 (cultured, closed circles), and cells cultured with cytokines and nicotinamide (cultured+NA, closed triangles). […]
Soluble purified seven-domain human VCAM-1, sVCAM-1 was mixed in coating medium (PBS buffered with 20 mM sodium bicarbonate pH, 8.5) with a fixed amount of carrier (2 μg/ml HSA) and adsorbed as 10-μl spots on polystyrene plates (Becton Dickinson and Co, San Jose, Calif., USA) for 2 hours at 37° C., alone or with the indicated amounts of intact or heat-inactivated chemokines. […] VCAM-1 site densities were assessed using ^125I-labeled anti-VCAM-1 mAb, 4B9. […] The entire duration of cell perfusions were recorded on a videotape with a long integration LIS-700 CCD video camera (Applitech Rigicam, Israel) and a Time Lapse SVHS-Video recorder (AG-6730; Panasonic, Japan). […]

NOD/SCID mice = test: Transplantation of human CD34+ cells into NOD/SCID mice, engraftment and quantification of SCID repopulating cells; format: in vivo; details: for engraftment (mice positively engrafted): 3-weeks with cytokines+NA, 4-weeks post transplantation
Source text: FIGS. 4a-4f is a graphic representation of the effect of nicotinamide on homing and engraftment of human hematopoietic cells transplanted into NOD/SCID mice. FIGS. 4a and 4b show the percentage of human (CD45+) cells in the cell populations before transplantation: non-cultured CD34^+ cells (non-cultured, gray ovals), the entire progeny of cultures following 3-week exposure to cytokines alone (cytokines alone, closed ovals), or cytokines and nicotinamide (cytokines+NA, arrows). The percent of engraftment 4 weeks post transplantation was determined by flow cytometry of human CD45 cells in the NOD/SCID marrow (y-axis). The numbers of SCID repopulating cells (SRC) were calculated by plotting the engraftment frequencies at each dose. The resultant curves indicates the estimated frequency of SRCs within non-cultured CD34+ cells (FIG. 4c), culture with cytokines (FIG. 4d) or cytokines and nicotinamide (FIG. 4e). The number shown in each box indicates the calculated frequency of SRCs using the maximum likelihood estimator. […] Mouse bone marrow cells were dually stained with FITC-conjugated anti-CD45 (human) and antibodies to human differentiation markers as indicated. Percentages of dual positive cells are shown within each quadrant. Note the greater than 7 fold enhancement of engraftment in the nicotinamide-treated mice (FIG. 4e), as compared with mice treated with cytokines alone (FIG. 4d); FIGS. 5a-5c are a graphic representation of the effect of nicotinamide (NA) on the engraftment potential of cells cultured under differentiation-promoting conditions. Cultures were initiated with purified cord blood-derived CD34+ cells in medium supplemented with SCF, TPO, IL-6 and FLT3, 50 ng/ml each, and IL-3, 20 ng/ml, with (cytokines+NA, arrows) or without (cytokines, ovals) 10 mM nicotinamide. After 3 weeks, cells were harvested, and transplanted into SCID mice as indicated. Mice were transplanted with 1.25−5×10^4 CD34+ cells or with their progeny following expansion. Mice were sacrificed 4 weeks later and bone marrow cells were analyzed by FACS for the presence of CD34+ (human progenitor) and CD45+ (human) cells. Mice were scored as engrafted when the number of human (CD45+) cells constituted […] of the marrow population. […] FIGS. 4b and 4c show the percentage of total human (CD45+) (FIG. 4b) cells and human progenitor (CD45+CD34+) (FIG. 4c) cells in the bone marrow of mice transplanted with cells derived from culture initiated with 1.25×10^4 CD34+ cells. Note the enhanced engraftment of both total human, and human progenitor cells resulting from nicotinamide treatment. Purified CD34+ cells were cultured in culture bags (American Fluoroseal Co., Gaithersburg, Md.) at 1×10^4 cells/ml in MEMα medium, 10% fetal calf serum (FCS) and cytokines: Thrombopoietin (TPO), interleukin-6 (IL-6), FLT-3 ligand and stem cell factor (SCF), each at a final concentration of 50 ng/ml (Perpo Tech, Inc., Rocky Hill, N.J.), with or without 5 mM nicotinamide (NA) (Sigma Aldrich, Milwaukee, Wis.) and incubated at 37° C. in a humidified atmosphere of 5% CO2 in air. […] Until week 3, the cultures were topped weekly with the same volume of fresh medium and then weekly demi-depopulated. Cell counting, colony forming unit (CFUc) assay and immunophenotype analysis were performed as described hereinbelow. NOD/SCID mice were bred and maintained in sterile intra-ventilated cages (Techniplast, Bugugiatte, Italy). Eight-week-old mice were sub-lethally irradiated as described above. […]

NC(=O)c1cccnc1 [nicotinamide]
percentage of initially settled cells resistant to removal by shear stress (VLA-4): significantly enhanced | mice with human (CD45+) cells in bone marrow (NOD/SCID mice; IL-3 supplemented cultures (SCF, TPO, IL-6, FLT3, IL-3) with 10 mM nicotinamide, 1.25×10^4 cells, 4 weeks): 5 out of 5 | engraftment of human progenitors (CD45+CD34+) (NOD/SCID mice; IL-3 supplemented cultures with 10 mM nicotinamide, 4-weeks after transplantation): observed only in mice transplanted with cells cultured with nicotinamide | number of SRCs relative to non-cultured cells (NOD/SCID mice; culture with nicotinamide and cytokines): 14 fold | engraftment (mice positively engrafted) (NOD/SCID mice; progeny of 3×10^3 CB CD34+ cells): 50% | engraftment (mice positively engrafted) (NOD/SCID mice; progeny of 6×10^3 CD34+ cells): 100%
